Tested on: Karpas cells
Assay: Detection of surface protein combinations of the protein network on untreated (V1) and actinonin-treated (V2) Karpas cells
Type: cell-based
Settings: for V2 no. of cells In 1/1OOO / V2 No. of cells In 1/1000: actinonin-treated Karpas cells (V2)
From the text: Principally, detecting of the surface protein combinations may comprise procedural steps of an automated method for determining molecular classes, molecular groups or molecular parts in a solid or liquid object according to DE 197 09 348 C. In these steps, surface proteins may be examined and measured in one and the same object, i.e. in a sample of immune cells and/or tumor cells for example, by sequentially applying reagent solutions Yn (n=1,2,3, . . . N) by means of an automated apparatus, said procedural steps being: I. taking a first reagent solution Y1 from a vessel containing the reagent solution, II. applying said reagent solution Y1 to the object which is on an object slide, III. allowing the reagent solution to react for an automatically set period of time, IV. recording at least one individual labeling pattern of the object previously labeled with said first reagent solution Y1, V. repeating steps I-IV by applying said first reagent solution Y1 or a second reagent solution Y2 or a mixture of said first and second reagent solutions, and VI. repeating steps I to V with further reagent solutions Yn (n=2,3, . . . N) or a mixture thereof and whereby the labeling distribution patterns obtained in each cycle of the method are turned into a complex molecular combination pattern of the object to be examined by computer-aided image overlay. From this combination pattern, information may be gained on the presence of the above mentioned proteins, thus also allowing detection of the surface protein combinations, if the reagent solutions used contain labeled substances directed against the proteins in question. In numerous examinations, it was possible to identify the 30 cell surface proteins already listed above which belong to a specific protein network controlling the early polarization stages of tumor cells and immune cells. In a further examination, surface protein combinations of this protein network of Karpas cells were detected, both in untreated form and after treatment with the aminopeptidase inhibitor actinonin. For this purpose, two groups V1 and V2 of Karpas cells were formed, with the cells of group Vl remaining untreated, while the cells of group V2 were treated with actinonin. Table 2 lists those surface protein combinations which are present both in the actinonin-treated cells and in the untreated cells. However, this table and the further tables 3 and 4 only give examples of 18 of the 30 proteins, with the detected proteins being designated 1 and the non-detected proteins being designated 0. The proteins are continuously numbered 1 to 18, with the nomenclature being notable from table 1. [table] The cell numbers stated in tables 2 to 4 refer to each 1,000 cells examined in groups V1 and V2. Table 3 lists the surface protein combinations which only occur in the untreated Karpas cells and are never found in the actinonin-treated Karpas cells. The number of protein combinations listed in this table 3 amounts to 131. Finally, table 4 exclusively lists those surface protein combinations which occur exclusively in the actinonin-treated Karpas cells. It may be gathered from tables 2 to 4 that, if one examines merely 18 proteins of the 30 proteins, a total of 394 different surface protein combinations will occur, with a total of 334 different combinations occurring in the untreated cells and a total of 263 different combinations being detected in the treated cells.

For CCCCC[C@H](CC(=O)NO)C(=O)N[C@H](C(=O)N1CCC[C@H]1CO)C(C)C [actinonin], the “number of different surface protein combinations detected in the treated cells” value (18 of the 30 proteins examined, untreated cells: 334, overall 394) was 263, the “number of surface protein combinations present both in actinonin-treated and untreated cells” value (Table 2, 18 proteins) was 203 and the “number of surface protein combinations occurring only in untreated Karpas cells, never found in actinonin-treated cells” value (Table 3, 18 proteins) was 131. For the same compound, the “number of surface protein combinations occurring exclusively in the actinonin-treated Karpas cells” value (Table 4, 18 proteins) was 60, the “effect of the modification of surface protein combinations on cell polarization” value (actinonin-treated Karpas cells) was “specific blocking of cell polarization” and the “V2 no. of cells In 1/1OOO” value (protein code No. 149, proteins 1-18 binary 000100010111001000) was 0.1 1/1OOO. For the same compound, the “V2 no. of cells In 1/1OOO” value (protein code No. 150, proteins 1-18 binary 000000010101011000) was 0.1 1/1OOO, the “V2 no. of cells In 1/1OOO” value (protein code No. 151, proteins 1-18 binary 011000001101001000) was 0.2 1/1OOO and the “V2 no. of cells In 1/1OOO” value (protein code No. 152, proteins 1-18 binary 010000011101001000) was 0.2 1/1OOO. For the same compound, the “V2 no. of cells In 1/1OOO” value (protein code No. 153, proteins 1-18 binary 001100010111011100) was 0.2 1/1OOO, the “V2 no. of cells In 1/1OOO” value (protein code No. 154, proteins 1-18 binary 000000001000001000) was 0.2 1/1OOO and the “V2 no. of cells In 1/1OOO” value (protein code No. 155, proteins 1-18 binary 111000011100011100) was 0.3 1/1OOO. The “V2 no. of cells In 1/1OOO” value (protein code No. 156, proteins 1-18 binary 010000001101000000) was 0.3 1/1OOO, the “V2 no. of cells In 1/1OOO” value (protein code No. 157, proteins 1-18 binary 001000010001000100) was 0.3 1/1OOO and the “V2 no. of cells In 1/1OOO” value (protein code No. 158, proteins 1-18 binary 100100000000001000) was 0.5 1/1OOO. For the same compound, the “V2 no. of cells In 1/1OOO” value (protein code No. 159, proteins 1-18 binary 010000011001000000) was 0.5 1/1OOO, the “V2 no. of cells In 1/1OOO” value (protein code No. 160, proteins 1-18 binary 001000010101011100) was 0.5 1/1OOO and the “V2 no. of cells In 1/1OOO” value (protein code No. 161, proteins 1-18 binary 000000011001001000) was 0.5 1/1OOO. For the same compound, the “V2 no. of cells In 1/1OOO” value (protein code No. 162 (second line so numbered, r189), proteins 1-18 binary 010000001100011000) was 0.2 1/1OOO, the “V2 no. of cells In 1/1OOO” value (protein code No. 162, proteins 1-18 binary 011100011101011000) was 0.1 1/1OOO and the “V2 no. of cells In 1/1OOO” value (protein code No. 163, proteins 1-18 binary 011000011100011100) was 0.1 1/1OOO. For the same compound, the “V2 no. of cells In 1/1OOO” value (protein code No. 164, proteins 1-18 binary 010000001101001000) was 0.1 1/1OOO, the “V2 no. of cells In 1/1OOO” value (protein code No. 165, proteins 1-18 binary 001000010001001100) was 0.1 1/1OOO and the “V2 no. of cells In 1/1OOO” value (protein code No. 166, proteins 1-18 binary 111100111111011100) was 0.2 1/1OOO. The “V2 no. of cells In 1/1OOO” value (protein code No. 167, proteins 1-18 binary 111100001100001100) was 0.2 1/1OOO, the “V2 no. of cells In 1/1OOO” value (protein code No. 168, proteins 1-18 binary 011000011100000000) was 0.2 1/1OOO and the “V2 no. of cells In 1/1OOO” value (protein code No. 169, proteins 1-18 binary 001100010000001000) was 0.2 1/1OOO. The “V2 no. of cells In 1/1OOO” value (protein code No. 170, proteins 1-18 binary 001100000001001000) was 0.2 1/1OOO, the “V2 no. of cells In 1/1OOO” value (protein code No. 171, proteins 1-18 binary 001000011000000000) was 0.2 1/1OOO and the “V2 no. of cells In 1/1OOO” value (protein code No. 172, proteins 1-18 binary 000000010001011000) was 0.2 1/1OOO. The “V2 no. of cells In 1/1OOO” value (protein code No. 173, proteins 1-18 binary 011100011100011100) was 0.3 1/1OOO, the “V2 no. of cells In 1/1OOO” value (protein code No. 174, proteins 1-18 binary 111100001100011100) was 0.1 1/1OOO and the “V2 no. of cells In 1/1OOO” value (protein code No. 175, proteins 1-18 binary 101100011101011000) was 0.1 1/1OOO. For the same compound, the “V2 no. of cells In 1/1OOO” value (protein code No. 176, proteins 1-18 binary 101000010011001000) was 0.1 1/1OOO, the “V2 no. of cells In 1/1OOO” value (protein code No. 177, proteins 1-18 binary 100000000000001000) was 0.1 1/1OOO and the “V2 no. of cells In 1/1OOO” value (protein code No. 178, proteins 1-18 binary 000100010101011000) was 0.1 1/1OOO. The “V2 no. of cells In 1/1OOO” value (protein code No. 179, proteins 1-18 binary 000000001101001000) was 0.1 1/1OOO, the “V2 no. of cells In 1/1OOO” value (protein code No. 180, proteins 1-18 binary 111100011111011000) was 0.2 1/1OOO and the “V2 no. of cells In 1/1OOO” value (protein code No. 181, proteins 1-18 binary 101100110101011000) was 0.2 1/1OOO. The “V2 no. of cells In 1/1OOO” value (protein code No. 183, proteins 1-18 binary 001100010100001000) was 0.2 1/1OOO, the “V2 no. of cells In 1/1OOO” value (protein code No. 184, proteins 1-18 binary 001000011011011000) was 0.2 1/1OOO and the “V2 no. of cells In 1/1OOO” value (protein code No. 185, proteins 1-18 binary 001000011011000000) was 0.2 1/1OOO. The “V2 no. of cells In 1/1OOO” value (protein code No. 186, proteins 1-18 binary 000000011011000000) was 0.2 1/1OOO, the “V2 no. of cells In 1/1OOO” value (protein code No. 187, proteins 1-18 binary 111000001100001000) was 0.1 1/1OOO and the “V2 no. of cells In 1/1OOO” value (protein code No. 188, proteins 1-18 binary 101000110111011100) was 0.1 1/1OOO. The “V2 no. of cells In 1/1OOO” value (protein code No. 189, proteins 1-18 binary 011100011100001100) was 0.1 1/1OOO, the “V2 no. of cells In 1/1OOO” value (protein code No. 190, proteins 1-18 binary 011100011001001000) was 0.1 1/1OOO and the “V2 no. of cells In 1/1OOO” value (protein code No. 191, proteins 1-18 binary 010000001111001000) was 0.1 1/1OOO. For the same compound, the “V2 no. of cells In 1/1OOO” value (protein code No. 192, proteins 1-18 binary 001100011111011100) was 0.1 1/1OOO, the “V2 no. of cells In 1/1OOO” value (protein code No. 193, proteins 1-18 binary 001100010011000000) was 0.1 1/1OOO and the “V2 no. of cells In 1/1OOO” value (protein code No. 194, proteins 1-18 binary 001000110011011000) was 0.1 1/1OOO. For the same compound, the “V2 no. of cells In 1/1OOO” value (protein code No. 195, proteins 1-18 binary 001000010011001100) was 0.1 1/1OOO, the “V2 no. of cells In 1/1OOO” value (protein code No. 198 (first line so numbered, r203), proteins 1-18 binary 001000010010000000) was 0.1 1/1OOO and the “V2 No. of cells In 1/1000” value (surface protein combination No. 3, binary code proteins 1-18: 011100011101011100, untreated V1: 0.8) was 0.0 1/1000. The “V2 No. of cells In 1/1000” value (surface protein combination No. 4, binary code proteins 1-18: 101000010011011000, untreated V1: 0.7) was 0.0 1/1000, the “V2 No. of cells In 1/1000” value (surface protein combination No. 5, binary code proteins 1-18: 001000110101011000, untreated V1: 0.7) was 0.0 1/1000 and the “V2 No. of cells In 1/1000” value (surface protein combination No. 6, binary code proteins 1-18: 000100000000001100, untreated V1: 0.7) was 0.0 1/1000. For the same compound, the “V2 No. of cells In 1/1000” value (surface protein combination No. 7, binary code proteins 1-18: 101000011111011000, untreated V1: 0.6) was 0.0 1/1000, the “V2 No. of cells In 1/1000” value (surface protein combination No. 8, binary code proteins 1-18: 001000000010000000, untreated V1: 0.6) was 0.0 1/1000 and the “V2 No. of cells In 1/1000” value (surface protein combination No. 9, binary code proteins 1-18: 111100011101011100, untreated V1: 0.5) was 0.0 1/1000. The “V2 No. of cells In 1/1000” value (surface protein combination No. 10, binary code proteins 1-18: 001100011101000000, untreated V1: 0.5) was 0.0 1/1000, the “V2 No. of cells In 1/1000” value (surface protein combination No. 11, binary code proteins 1-18: 000000011111001000, untreated V1: 0.5) was 0.0 1/1000 and the “V2 No. of cells In 1/1000” value (surface protein combination No. 12, binary code proteins 1-18: 111000011101011100, untreated V1: 0.4) was 0.0 1/1000. For the same compound, the “V2 No. of cells In 1/1000” value (surface protein combination No. 13, binary code proteins 1-18: 110000001100001000, untreated V1: 0.4) was 0.0 1/1000, the “V2 No. of cells In 1/1000” value (surface protein combination No. 14, binary code proteins 1-18: 101100011111001000, untreated V1: 0.4) was 0.0 1/1000 and the “V2 No. of cells In 1/1000” value (surface protein combination No. 15, binary code proteins 1-18: 101000010001011000, untreated V1: 0.4) was 0.0 1/1000. The “V2 No. of cells In 1/1000” value (surface protein combination No. 16, binary code proteins 1-18: 100100000100011000, untreated V1: 0.4) was 0.0 1/1000, the “V2 No. of cells In 1/1000” value (surface protein combination No. 17, binary code proteins 1-18: 100100000001001100, untreated V1: 0.4) was 0.0 1/1000 and the “V2 No. of cells In 1/1000” value (surface protein combination No. 18, binary code proteins 1-18: 100000000000011000, untreated V1: 0.4) was 0.0 1/1000.
